Where two headings read alike, the source gives them in different places.
System: murine Th17 cells
Test: Cytokine response by in vitro-polarized murine Th17 cells stimulated with PMA/ionomycin
Type: cell-based
Settings: Mus musculus, PMA/ionomycin 20 h
Experimental: Purification of murine CD4+ T cells: To isolate mouse splenocytes, freshly isolated mouse spleens were minced in culture media (RPMI 1640 (Lonza, Allendale, N.J.) containing 10% (v/v) charcoal-dextran filtered, heat inactivated FBS (Omega Scientific, Tarzana, Calif.), 0.05 mM 2-Mercaptoethanol (Sigma-Aldrich, St. Louis, Mo.), and 1×Pen/Strep Amphotericin B (Lonza)), using a sterile razor blade then pushed through 70 and 40 μm cell strainers. Cells were resuspended in ACK Lysing Buffer (Lonza) for 3 minutes at room temperature to lyse the red blood cells. CD4+ T cells were isolated from the mouse splenocytes using the EasySep negative selection mouse CD4+ T cell isolation kit (Stemcell, Vancouver, Canada) according to manufacturer's instructions briefly as follows: Unwanted cells were specifically labeled by incubation with a cocktail of biotinylated antibodies directed against cell surface antigens on mouse cells of hematopoietic origin (CD8a, CD11b, CD11c, CD19, CD45R/B220, CD49b, TCRγ/δ, and TER119). Labeled cells were then magnetically removed using streptavidin-bound magnetic beads, leaving the desired CD4+ T cells.
In vitro mouse Th17 differentiation: Mouse CD4+ T cells isolated as above were polarized into Th17 cells as follows: Tissue culture-treated 100 mm plates (Corning, Corning, N.Y.) were coated with 2 μg/ml purified NA/LE hamster anti-mouse CD3e clone 145-2C11 antibody (BD Biosciences, San Jose, Calif.) overnight at 4° C. Each coated plate was seeded with ˜2-3 e6 mouse CD4+ T cells in polarization media consisting of culture media (RPMI 1640/FBS/2-Mercaptoethanol/Pen/Strep Amphotericin B) supplemented with: recombinant mouse IL-6 (50 ng/ml), […] (50 ng/ml), IL-23 (50 ng/ml)(R&D Systems, Minneapolis, Minn.), recombinant human TGF1β (5 ng/ml) (Cell Signaling Technology, Danvers, Mass.), anti-CD28 clone 37.51 (10 μg/ml)(BD Biosciences, San Jose, Calif.), anti-IL-2 clone JES6-1A12 (1 μg/ml), anti-IL-4 clone 11B11 (10 μg/ml), and anti-IFNγ clone XMG1.2 (10 μg/ml). All recombinant mouse cytokines and anti-mouse neutralizing antibodies were purchased from eBioscience (San Diego, Calif.) unless otherwise specified. Cells were incubated in the above Polarization media for 3 d at 37° C. in a humidified atmosphere at 5% CO2. After 3 d, cells were re-polarized as above, except for the following cytokine and neutralizing antibody concentration changes: recombinant mouse IL-6 (40 ng/ml), recombinant human TGFβ (1 ng/ml), anti-CD28 clone 37.51 (5 μg/ml), anti-IL-2 clone JES6-1A12 (0.5 μg/ml), anti-IL-4 clone 11B11 (5 μg/ml), and anti-IFNγ clone XMG1.2 (5 μg/ml). Cells were maintained under the above conditions for an additional 3 d at 37° C. in humidified atmosphere at 5% CO2 for a total of 6 days of polarization.
Inhibition of cytokine response by in vitro-polarized murine Th17 cells stimulated with PMA/ionomycin: Murine Th17 cells, polarized as described above, were seeded at 2e6 cells/ml in culture media. Cells were pre-treated with test compounds (10 μM down by ⅕ in a 4-point serial dilution series) for 1 h at 37° C. in a humidified atmosphere at 5% CO2. Cells were then stimulated with 50 ng/ml phorbol 12-myristate 13-acetate (PMA)(Sigma-Aldrich, St. Louis, Mo.)+1 μg/ml ionomycin (Life Technologies, Grand Island, N.Y.) for 20 h at 37° C. in a humidified atmosphere at 5% CO2. Supernatant was collected and analyzed using Bio-Plex Pro Mouse Cytokine Th17 Panel A 6-Plex and the Bio-Plex Pro Mouse Cytokine Th17 Panel B 8-Plex (Bio-Rad Laboratories, Hercules, Calif.) as per manufacturer's protocols. Magnetic beads were read on the Bio-Plex MAGPIX multiplex reader instrument using the accompanying xPONENT 4.2 acquisition software (Bio-Rad Laboratories, Hercules, Calif.). Data were analyzed via the Bio-Plex Manager software v6.1 (Bio-Rad Laboratories).

[1] = read-out: EC50 (nM) of cytokine reduction, IFNγ
[2] = read-out: EC50 (nM) of cytokine reduction, IL-6
[3] = read-out: EC50 (nM) of cytokine reduction, IL-10
[4] = read-out: EC50 (nM) of cytokine reduction, IL-17A
[5] = read-out: EC50 (nM) of cytokine reduction, IL-21
[6] = read-out: EC50 (nM) of cytokine reduction, IL-22
[7] = read-out: EC50 (nM) of cytokine reduction, IL-23p19

EC50 [1] | EC50 [2] | EC50 [3] | EC50 [4] | EC50 [5] | EC50 [6] | EC50 [7] | Structure (SMILES)
> 10000 nM | 2380 nM | 979 nM | > 10000 nM | 8280 nM | 5080 nM | 940 nM | CCOc1cc(C(=O)N2CCC(N3CCN(C)CC3)CC2)ccc1Nc1cc2c(cn1)N(C)C(=O)c1occc1N2C [Compound 65]
> 10000 nM | 1600 nM | 1090 nM | > 10000 nM | 4240 nM | 2980 nM | 800 nM | CCOc1cc(C(=O)N2CCC(N3CCN(C)CC3)CC2)ccc1Nc1cc2c(cn1)N(C)C(=O)c1ccccc1N2C [Compound 61]
6930 nM | 2920 nM | 2150 nM | > 10000 nM | 3990 nM | 2120 nM | 840 nM | CCOc1cc(C(=O)NCC2CC2)ccc1Nc1cc2c(cn1)N(C)C(=O)c1ccccc1N2C [Compound 57]
8540 nM | 2480 nM | 1820 nM | > 10000 nM | 4980 nM | 5010 nM | 1340 nM | CCOc1cc(C(=O)N2CCNCC2)ccc1Nc1cc2c(cn1)N(C)C(=O)c1ccccc1N2C [Compound 62]
1770 nM | 1170 nM | 373 nM | 4980 nM | 2110 nM | 880 nM | 360 nM | CCOc1cc(C(=O)N2CC[C@@H](N(C)C)C2)ccc1Nc1cc2c(cn1)N(C)C(=O)c1ccccc1N2C [Compound 115]
4270 nM | 1740 nM | 577 nM | > 10000 nM | 4850 nM | 2630 nM | 480 nM | CCOc1cc(C(=O)N2CCC(N3CCCC3)CC2)ccc1Nc1cc2c(cn1)N(C)C(=O)c1ccccc1N2C [Compound 46, 3-(2-Ethoxy-4-(4-(pyrrolidin-1-yl)piperidine-1-carbonyl)phenylamino)-5,11-dimethyl-5H-benzo[e]pyrido[3,4-b][1,4]diazepin-10(11H)-one]

From US20170008888A1 (KYORIN PHARMACEUTICAL CO., LTD., priority 2014, published 2017)
